Measured values reported in patent US11236046B2, “Substituted heterocyclic sulfonamide compounds useful as TRPA1 modulators” (Genentech, Inc., priority 2013, dated 2022).

Biological target: human TRPA1 (Homo sapiens (Human), UniProt O75762)
Assay: FLIPR Tetra calcium influx assay, block of cinnamaldehyde-induced calcium influx in CHO cells expressing TRPA1 (human)
Type: cell-based
Settings: 20 min compound incubation, 75 uM cinnamaldehyde (~EC80), Hill coefficient fixed to 1.5, read-out: hTRPA1 AUC IC50
Summary of the method: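 CHO cells loaded with calcium dye, preincubated with compounds 20 min at room temperature in HBSS/20 mM HEPES pH 7.4 with 0.02% BSA. Channels activated by ~EC80 cinnamaldehyde (75 uM human, 45 uM rat); block of calcium influx read on FLIPR Tetra, IC50 fitted with fixed Hill coefficient.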

human TRPA1, sequence (O75762 whole entry): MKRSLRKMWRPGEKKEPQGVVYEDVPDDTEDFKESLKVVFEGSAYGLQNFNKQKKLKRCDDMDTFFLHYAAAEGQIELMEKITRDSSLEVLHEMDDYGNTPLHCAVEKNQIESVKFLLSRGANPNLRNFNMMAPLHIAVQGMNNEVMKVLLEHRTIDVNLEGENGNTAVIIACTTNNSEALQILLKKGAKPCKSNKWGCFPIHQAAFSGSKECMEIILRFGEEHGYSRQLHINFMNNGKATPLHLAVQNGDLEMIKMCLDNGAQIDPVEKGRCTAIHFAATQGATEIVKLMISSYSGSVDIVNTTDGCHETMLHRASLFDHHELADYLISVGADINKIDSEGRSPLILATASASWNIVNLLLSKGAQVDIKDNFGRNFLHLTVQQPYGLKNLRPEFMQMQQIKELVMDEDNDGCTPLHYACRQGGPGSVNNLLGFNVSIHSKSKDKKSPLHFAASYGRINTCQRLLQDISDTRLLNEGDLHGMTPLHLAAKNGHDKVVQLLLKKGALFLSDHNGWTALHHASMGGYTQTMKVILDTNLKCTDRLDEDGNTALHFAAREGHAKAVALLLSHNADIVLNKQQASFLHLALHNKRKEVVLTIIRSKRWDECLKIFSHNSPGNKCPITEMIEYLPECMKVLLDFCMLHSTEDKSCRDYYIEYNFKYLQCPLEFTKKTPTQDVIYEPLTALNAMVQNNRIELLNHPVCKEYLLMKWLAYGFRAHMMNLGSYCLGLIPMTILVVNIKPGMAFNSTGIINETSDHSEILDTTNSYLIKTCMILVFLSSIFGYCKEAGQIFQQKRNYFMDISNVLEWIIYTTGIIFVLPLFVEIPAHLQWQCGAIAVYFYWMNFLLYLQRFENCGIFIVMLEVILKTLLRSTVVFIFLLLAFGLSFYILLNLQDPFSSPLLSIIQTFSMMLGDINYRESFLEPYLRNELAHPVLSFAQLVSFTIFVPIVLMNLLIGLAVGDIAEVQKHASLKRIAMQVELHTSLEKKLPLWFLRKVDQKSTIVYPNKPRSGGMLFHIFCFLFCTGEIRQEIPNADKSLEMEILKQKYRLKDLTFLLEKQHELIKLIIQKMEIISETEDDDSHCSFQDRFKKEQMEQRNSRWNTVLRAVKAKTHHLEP

Row | SMILES | IC50
1 | C[C@@]1(F)C[C@@H](C(=O)NCc2cc(-c3ccc(C(F)(F)F)nc3)ncn2)N(S(=O)(=O)c2ccc(F)cc2)C1 (single isomer, unassigned) [Example 107] | 90 nM
2 | O=C(NCc1cc(F)cc(-c2ccc(OC(F)F)nc2)c1)[C@@H]1C[C@@H](F)CN1S(=O)(=O)c1ccc(F)cc1 [Example 76, (2S,4R)—N-([3-[6-(difluoromethoxy)pyridin-3-yl]-5-fluorophenyl]methyl)-4-fluoro-1-[(4-fluorobenzene)sulfonyl]pyrrolidine-2-carboxamide] | 39 nM
3 | C[C@@]1(C(=O)NCc2cc(-c3ccc(C(F)(F)F)nc3)ncn2)CCN1S(=O)(=O)c1ccc(F)cc1 [Example 198, (S)-1-(4-fluorophenylsulfonyl)-2-methyl-N-((6-(6-(trifluoromethyl)pyridin-3-yl)pyrimidin-4-yl)methyl)azetidine-2-carboxamide] | 59 nM
4 | O=C(NCc1cc(-c2ccc(C(F)(F)F)cc2F)ncn1)[C@@H]1C[C@@H](F)CN1S(=O)(=O)c1ccc(F)cc1 [Example 113, (2S,4R)-4-fluoro-N-((6-(2-fluoro-4-(trifluoromethyl)phenyl)pyrimidin-4-yl)methyl)-1-(4-fluorophenylsulfonyl)pyrrolidine-2-carboxamide] | 161 nM
5 | O=C(NCc1cc(F)cc(-c2csc(C(F)(F)F)n2)c1)[C@@H]1C[C@@H](F)CN1S(=O)(=O)c1ccc(F)cc1 [Example 173, (2S,4R)-4-fluoro-1-(4-fluorophenyl)sulfonyl-N-[[3-fluoro-5-[2-(trifluoromethyl)thiazol-4-yl]phenyl]methyl]pyrrolidine-2-carboxamide] | 111 nM
6 | O=C(NCc1cc(-c2ccc(C(F)(F)F)cc2)ncn1)[C@@H]1C[C@H]2COC[C@H]2N1S(=O)(=O)c1ccc(F)cc1 (single isomer, unassigned) [Example 99] | 428 nM
7 | O=C(NCc1cc(F)cc(-c2ccc(C(F)F)nc2)c1)[C@@H]1C[C@@H](F)CN1S(=O)(=O)c1ccc(F)cc1 [Example 94, (2S,4R)—N-[[3-[6-(difluoromethyl)-3-pyridyl]-5-fluoro-phenyl]methyl]-4-fluoro-1-(4-fluorophenyl)sulfonyl-pyrrolidine-2-carboxamide] | 29 nM
8 | N#Cc1cnc(-c2cnc(C(F)(F)F)nc2)cc1CNC(=O)[C@@H]1C[C@@H](F)CN1S(=O)(=O)c1ccc(F)cc1 [Example 189, (2S,4R)—N-([5-cyano-2-[2-(trifluoromethyl)pyrimidin-5-yl]pyridin-4-yl]methyl)-4-fluoro-1-[(4-fluorobenzene)sulfonyl]pyrrolidine-2-carboxamide] | 55 nM
9 | O=C(NCc1cc(N2CCC(OC(F)(F)F)CC2)c(F)cn1)[C@@H]1C[C@@H](F)CN1S(=O)(=O)c1ccc(F)cc1 [Example 66, (2S,4R)-4-fluoro-1-(4-fluorophenyl)sulfonyl-N-[[5-fluoro-4-[4-(trifluoromethoxy)-1-piperidyl]-2-pyridyl]methyl]pyrrolidine-2-carboxamide] | 22 nM
10 | O=C(NCc1cc(-c2cnc(C(F)(F)F)nc2)ncc1F)C1C2CC(CC2F)N1S(=O)(=O)c1ccc(F)cc1 (stereo not shown) [Example 185, 5-fluoro-N-((5-fluoro-2-(2-(trifluoromethyl)pyrimidin-5-yl)pyridin-4-yl)methyl)-2-(4-fluorophenylsulfonyl)-2-aza-bicyclo[2.2.1]heptane-3-carboxamide] | 155 nM
11 | O=C(NCc1cc(-c2ccc(C(F)(F)F)nc2)nc(-c2ccc(C(F)(F)F)nc2)c1)[C@@H]1C[C@@H](F)CN1S(=O)(=O)c1ccc(F)cc1 [Example 83, (2S,4R)—N-[[2,6-bis[6-(trifluoromethyl)-3-pyridyl]-4-pyridyl]methyl]-4-fluoro-1-(4-fluorophenyl)sulfonyl-pyrrolidine-2-carboxamide] | 54.6 nM
12 | O=C(NCc1cc(-c2cnc(C(F)(F)F)nc2)ncc1F)[C@@H]1C[C@@H](F)CN1S(=O)(=O)c1ccc(F)cc1 [Example 180, (2S,4R)-4-fluoro-1-(4-fluorophenyl)sulfonyl-N-[[5-fluoro-2-[2-(trifluoromethyl)pyrimidin-5-yl]-4-pyridyl]methyl]pyrrolidine-2-carboxamide] | 26 nM
13 | C[C@H]1CC[C@@H](C(=O)NCc2cc(-c3ccc(C(F)(F)F)nc3)ncn2)N1S(=O)(=O)c1ccc(F)cc1 [Example 41, (2S,5S)-1-[(4-fluorobenzene)sulfonyl]-5-methyl-N-([6-[6-(trifluoromethyl)pyridin-3-yl]pyrimidin-4-yl]methyl)pyrrolidine-2-carboxamide] | 5 nM
14 | O=C(NCc1cc(-c2ccc(C(F)(F)F)nc2)ncn1)[C@@H]1[C@@H](F)CCN1S(=O)(=O)c1ccc(F)cc1 [Example 136, (2R,3S)-3-fluoro-1-(4-fluorophenylsulfonyl)-N-((6-(6-(trifluoromethyl)pyridin-3-yl)pyrimidin-4-yl)methyl)pyrrolidine-2-carboxamide] | 21 nM
15 | O=C(NCc1cc(N2CCC3(CC2)CC3)c(F)cn1)[C@@H]1C[C@@H](F)CN1S(=O)(=O)c1ccc(F)cc1 [Example 129, (2S,4R)—N-[[4-(6-azaspiro[2.5]octan-6-yl)-5-fluoro-2-pyridyl]methyl]-4-fluoro-1-(4-fluorophenyl)sulfonyl-pyrrolidine-2-carboxamide] | 99 nM
16 | O=C(NCc1ncc(F)c(-c2ccc(C(F)(F)F)nc2)c1F)[C@@H]1C[C@@H](F)CN1S(=O)(=O)c1ccc(F)cc1 [Example 117, (2S,4R)—N-([3,5-difluoro-4-[6-(trifluoromethyl)pyridin-3-yl]pyridin-2-yl]methyl)-4-fluoro-1-[(4-fluorobenzene)sulfonyl]pyrrolidine-2-carboxamide] | 224 nM
17 | O=C(NCc1cc(-c2ccc(OC(F)(F)F)cc2)ncn1)[C@@H]1C[C@@H](F)CN1S(=O)(=O)c1ccc(F)cc1 [Example 145, (2S,4R)-4-fluoro-1-(4-fluorophenylsulfonyl)-N-((6-(4-(trifluoromethoxy)phenyl)pyrimidin-4-yl)methyl)pyrrolidine-2-carboxamide] | 21 nM
18 | O=C(NCc1cc(N2CCC(F)(F)CC2)c(F)cn1)[C@@H]1C[C@@H](F)CN1S(=O)(=O)c1ccc(F)cc1 [Example 128, (2S,4R)—N-[[4-(4,4-difluoro-1-piperidyl)-5-fluoro-2-pyridyl]methyl]-4-fluoro-1-(4-fluorophenyl)sulfonyl-pyrrolidine-2-carboxamide] | 404 nM

The remaining lines, values ahead:

Row | IC50 | SMILES
19 | 4 nM | O=C(NCc1cc(-c2cnc(C(F)(F)F)nc2)ccc1Cl)[C@@H]1C[C@@H](F)CN1S(=O)(=O)c1ccc(F)cc1 [Example 158, (2S,4R)—N-[[2-chloro-5-[2-(trifluoromethyl)pyrimidin-5-yl]phenyl]methyl]-4-fluoro-1-(4-fluorophenyl)sulfonyl-pyrrolidine-2-carboxamide]
20 | 7 nM | O=C(NCc1cc(-c2ccc(C(F)(F)F)cn2)ccn1)[C@@H]1[C@@H](F)CCN1S(=O)(=O)c1ccc(F)cc1 [Example 72, (2R,3S)-3-fluoro-1-(4-fluorophenyl)sulfonyl-N-[[4-[5-(trifluoromethyl)-2-pyridyl]-2-pyridyl]methyl]pyrrolidine-2-carboxamide]
21 | 14 nM | O=C(NCc1cc(F)cc(-c2cnc(C(F)(F)F)nc2)c1)[C@@H]1C[C@@H](F)CN1S(=O)(=O)c1ccc(F)cc1 [Example 91, (2S,4R)-4-fluoro-1-(4-fluorophenyl)sulfonyl-N-[[3-fluoro-5-[2-(trifluoromethyl)pyrimidin-5-yl]phenyl]methyl]pyrrolidine-2-carboxamide]
22 | 7 nM | O=C(NCc1cc(F)cc(-c2cnc(C(F)(F)F)nc2)c1)[C@@H]1[C@@H](F)CCN1S(=O)(=O)c1ccc(F)cc1 [Example 68, (2R,3S)-3-fluoro-1-(4-fluorophenyl)sulfonyl-N-[[3-fluoro-5-[2-(trifluoromethyl)pyrimidin-5-yl]phenyl]methyl]pyrrolidine-2-carboxamide]
23 | 11 nM | O=C(NCc1cc(-c2cnc(C(F)(F)F)nc2)ccc1F)[C@@H]1C[C@@H](F)CN1S(=O)(=O)c1ccc(F)cc1 [Example 56, (2S,4R)-4-fluoro-N-(2-fluoro-5-(2-(trifluoromethyl)pyrimidin-5-yl)benzyl)-1-((4-fluorophenyl)sulfonyl)pyrrolidine-2-carboxamide]
24 | 20 nM | C[C@@]1(F)C[C@@H](C(=O)NCc2cc(-c3ccc(OC(F)(F)F)cc3)ncn2)N(S(=O)(=O)c2ccc(F)cc2)C1 [Example 46, (2S,4R)-4-fluoro-1-((4-fluorophenyl)sulfonyl)-4-methyl-N-((6-(4-(trifluoromethoxy)phenyl)pyrimidin-4-yl)methyl)pyrrolidine-2-carboxamide]
25 | 16 nM | C[C@@]1(F)C[C@@H](C(=O)NCc2cc(F)cc(-c3cnc(C(F)(F)F)nc3)c2)N(S(=O)(=O)c2ccc(F)cc2)C1 [Example 52, (2S,4R)-4-fluoro-N-(3-fluoro-5-(2-(trifluoromethyl)pyrimidin-5-yl)benzyl)-1-((4-fluorophenyl)sulfonyl)-4-methylpyrrolidine-2-carboxamide]
26 | 4 nM | C[C@H]1CC[C@@H](C(=O)NCc2ccnc(-c3cnc(C(F)(F)F)nc3)c2)N1S(=O)(=O)c1ccc(F)cc1 [Example 186, (2S,5S)-1-(4-fluorophenylsulfonyl)-5-methyl-N-((2-(2-(trifluoromethyl)pyrimidin-5-yl)pyridin-4-yl)methyl)pyrrolidine-2-carboxamide]
27 | 15 nM | O=C(NCc1cc(-c2ccc(C(F)(F)F)cc2)ncn1)[C@@H]1C[C@@H](F)CN1S(=O)(=O)c1ccc(F)cc1 [Example 143, (2S,4R)-4-fluoro-1-(4-fluorophenylsulfonyl)-N-((6-(4-(trifluoromethyl)phenyl)pyrimidin-4-yl)methyl)pyrrolidine-2-carboxamide]
28 | 13 nM | O=C(NCc1cc(-c2ccc(C(F)(F)F)nc2)c(F)cn1)[C@@H]1[C@@H](F)CCN1S(=O)(=O)c1ccc(F)cc1 [Example 115, (2R,3S)-3-fluoro-1-(4-fluorophenyl)sulfonyl-N-[[5-fluoro-4-[6-(trifluoromethyl)-3-pyridyl]-2-pyridyl]methyl]pyrrolidine-2-carboxamide]
